According to patent publication US20050112573A1, “Method of detecting toxic substance” (priority 2001, published 2005):

Tested on: yeast genes (level of expressed mRNA)
Assay: DNA chip analysis of expressed mRNA of yeast genes after 2 h culture with a toxic chemical substance
Format: cell-based, Saccharomyces cerevisiae S288C
Description: Yeast (Saccharomyces cerevtisiae S288C (α SUC2mal mel gap2 CUP1)) were cultured at 25° C. on YPD medium (yeast extract 1%, polypepton 2%, glucose 2%). One of toxic chemical substances was added to the cell at logarithmic growth phase, and the cell was further cultured for two hours. Cell was cultured without any chemical substance in the same condition, and was used as control. Concentrations of the chemical substances were defined to inhibit the growth of the yeast but not lead to death.
After the completion of cultivation, the culture was centrifuged to collect the cells. To the cells, sodium acetate buffer (50 mM sodium acetate, 10 mM EDTA, 1% SDS) was added, and the mixture was shaken at 65° C. for five minutes, followed by returning to room temperature, and obtaining the supernatant, which procedure was repeated two times. To the supernatant, ½ amount of a solution of phenol/chloroform was added, and the mixture was centrifuged to give a supernatant, which was added with an equal amount of chloroform, and the mixture was centrifuged to give a supernatant. To the supernatant, an equal amount of isopropanol containing 0.3 M sodium acetate was added, and the mixture was allowed to stand at room temperature for 30 minutes, after which the mixture was centrifuged to give a sediment of the whole RNAs. Seventy % ethanol was added to the sediment, and the mixture was again centrifuged to give a sediment, which was then dried and dissolved in water. mRNA was isolated from the whole RNAs as followings. In view of the fact that a poly A chain is attached to the 3′ terminus of mRNA, a polynucleotide having a poly T structure which was immobilized on the surface of latex beads was used to trap the mRNA, and then the mRNA was washed and eluted with spine column (Oligotex-dT30<Super>mRNA Purification Kit, Takara). Reverse transcription of the mRNA was conducted with a reverse transcriptase (Super Script II Reverse Transcriptase; catalogue No. 18064-014, GibcoBRL) using fluorescence-labeled nucleotides to give cDNAs that were introduced with Cy3-dUTP or Cy5-dUTP during the reverse transcription.
The labeled cDNAs were dissolved in TE buffer (10 mM Tris-HCl/1 mM EDTA, pH8.0), and the solution was dropped on the DNA chip containing the whole genes of yeast (DNA Chip Research Inc. Japan) so that the cDNAs were hybridized on the DNA chip at 65° C. for over 12 hours. The fluoresces intensity of the DNA chip was read with a scanner, and the ratio relative to the fluorescence intensity resulting from the absence of chemical substance was estimated as the following, which is shown in Tables 1 to 9: [formula]
In the Tables, “Intensity” indicated in the rightmost column is a value of the level of expressed mRNA of each gene in control cells as divided by the average level of the expressions of the whole genes.

With “manganese ethylenebis(dithiocarbamate) [(8)]” the “The level of expressed mRNA in the presence of chemical substance/” value (yeast gene YKL086W, ratio to control without chemical) was 1.1, the “The level of expressed mRNA in the presence of chemical substance/The level of expressed mRNA in the absence of chemical substance” value (yeast gene YKL096W) was 0.5 and the “The level of expressed mRNA in the presence of chemical substance/” value (yeast gene YKL151C, ratio to control without chemical substance, 2 h culture) was 1.0. For the same substance, the “The level of expressed mRNA in the presence of chemical substance/” value (yeast gene YKL153W, ratio to control without chemical substance, 2 h culture) was 0.7, the “The level of expressed mRNA in the presence of chemical substance/The level of expressed mRNA in the absence of chemical substance” value (yeast gene YKL165C) was 1.5 and the “The level of expressed mRNA in the presence of chemical substance/The level of expressed mRNA in the absence of chemical substance” value (yeast gene YKL193C) was 1.4. For the same substance, the “The level of expressed mRNA in the presence of chemical substance/” value (yeast gene YKL195W, ratio to control without chemical substance, 2 h culture) was 1.2, the “The level of expressed mRNA in the presence of chemical substance/in the absence of chemical substance” value (yeast gene YKR009C) was 0.9 and the “The level of expressed mRNA in the presence of chemical substance/” value (yeast gene YKR091W, ratio to control without chemical) was 1.3. For the same substance, the “The level of expressed mRNA in the presence of chemical substance/” value (yeast gene YLR054C, ratio to control without chemical substance, 2 h culture) was 1.1, the “The level of expressed mRNA in the presence of chemical substance/The level of expressed mRNA in the absence of chemical substance” value (yeast gene YLR120C) was 0.9 and the “The level of expressed mRNA in the presence of chemical substance/The level of expressed mRNA in the absence of chemical substance” value (yeast gene YLR136C) was 1.1. The “The level of expressed mRNA in the presence of chemical substance/” value (yeast gene YLR149C, ratio to control without chemical substance, 2 h culture) was 1.1, the “The level of expressed mRNA in the presence of chemical substance/” value (yeast gene YLR152C, ratio to control without chemical substance, 2 h culture) was 1.2 and the “The level of expressed mRNA in the presence of chemical substance/The level of expressed mRNA in the absence of chemical substance” value (yeast gene YLR178C) was 0.9. The “The level of expressed mRNA in the presence of chemical substance/” value (yeast gene YLR194C, ratio to control without chemical) was 1.0, the “The level of expressed mRNA in the presence of chemical substance/The level of expressed mRNA in the absence of chemical substance” value (yeast gene YLR250W) was 1.3 and the “The level of expressed mRNA in the presence of chemical substance/” value (yeast gene YLR324W, ratio to control without chemical substance, 2 h culture) was 1.0. For the same substance, the “The level of expressed mRNA in the presence of chemical substance/The level of expressed mRNA in the absence of chemical substance” value (yeast gene YLR327C) was 2.2, the “The level of expressed mRNA in the presence of chemical substance/” value (yeast gene YLR350W, ratio to control without chemical substance, 2 h culture) was 1.0 and the “The level of expressed mRNA in the presence of chemical substance/in the absence of chemical substance” value (yeast gene YLR351C) was 1.2. The “The level of expressed mRNA in the presence of chemical substance/The level of expressed mRNA in the absence of chemical substance” value (yeast gene YLR356W) was 0.7, the “The level of expressed mRNA in the presence of chemical substance/The level of expressed mRNA in the absence of chemical substance” value (yeast gene YLR362W) was 1.4 and the “The level of expressed mRNA in the presence of chemical substance/in the absence of chemical substance” value (yeast gene YLR375W) was 1.0. For the same substance, the “The level of expressed mRNA in the presence of chemical substance/” value (yeast gene YLR387C, ratio to control without chemical substance, 2 h culture) was 1.4, the “The level of expressed mRNA in the presence of chemical substance/The level of expressed mRNA in the absence of chemical substance” value (yeast gene YLR391W) was 0.7 and the “The level of expressed mRNA in the presence of chemical substance/The level of expressed mRNA in the absence of chemical substance” value (yeast gene YLR429W) was 1.0. The “The level of expressed mRNA in the presence of chemical substance/” value (yeast gene YLR460C, ratio to control without chemical substance, 2 h culture) was 8.1, the “The level of expressed mRNA in the presence of chemical substance/” value (yeast gene YML117W, ratio to control without chemical substance, 2 h culture) was 0.7 and the “The level of expressed mRNA in the presence of chemical substance/The level of expressed mRNA in the absence of chemical substance” value (yeast gene YMR004W) was 1.0. The “The level of expressed mRNA in the presence of chemical substance/” value (yeast gene YMR009W, ratio to control without chemical substance, 2 h culture) was 1.4, the “The level of expressed mRNA in the presence of chemical substance/” value (yeast gene YMR067C, ratio to control without chemical substance, 2 h culture) was 1.1 and the “The level of expressed mRNA in the presence of chemical substance/” value (yeast gene YMR090W, ratio to control without chemical substance, 2 h culture) was 3.9. For the same substance, the “The level of expressed mRNA in the presence of chemical substance/The level of expressed mRNA in the absence of chemical substance” value (yeast gene YMR094W) was 1.0, the “The level of expressed mRNA in the presence of chemical substance/” value (yeast gene YMR095C, ratio to control without chemical) was 1.2 and the “The level of expressed mRNA in the presence of chemical substance/” value (yeast gene YMR097C, ratio to control without chemical substance, 2 h culture) was 1.5. For the same substance, the “The level of expressed mRNA in the presence of chemical substance/” value (yeast gene YMR102C, ratio to control without chemical substance, 2 h culture) was 1.0, the “The level of expressed mRNA in the presence of chemical substance/The level of expressed mRNA in the absence of chemical substance” value (yeast gene YMR104C) was 0.9 and the “The level of expressed mRNA in the presence of chemical substance/” value (yeast gene YMR107W, ratio to control without chemical substance, 2 h culture) was 1.3. The “The level of expressed mRNA in the presence of chemical substance/” value (yeast gene YMR180C, ratio to control without chemical substance, 2 h culture) was 1.8, the “The level of expressed mRNA in the presence of chemical substance/” value (yeast gene YMR184W, ratio to control without chemical substance, 2 h culture) was 1.9 and the “The level of expressed mRNA in the presence of chemical substance/” value (yeast gene YMR191W, ratio to control without chemical substance, 2 h culture) was 1.1. For the same substance, the “The level of expressed mRNA in the presence of chemical substance/The level of expressed mRNA in the absence of chemical substance” value (yeast gene YMR219W) was 1.1, the “The level of expressed mRNA in the presence of chemical substance/The level of expressed mRNA in the absence of chemical substance” value (yeast gene YMR226C) was 1.6 and the “The level of expressed mRNA in the presence of chemical substance/in the absence of chemical substance” value (yeast gene YMR267W) was 1.5. The “The level of expressed mRNA in the presence of chemical substance/The level of expressed mRNA in the absence of chemical substance” value (yeast gene YMR275C) was 0.8, the “The level of expressed mRNA in the presence of chemical substance/The level of expressed mRNA in the absence of chemical substance” value (yeast gene YMR276W) was 0.8 and the “The level of expressed mRNA in the presence of chemical substance/in the absence of chemical substance” value (yeast gene YMR278W) was 1.1. For the same substance, the “The level of expressed mRNA in the presence of chemical substance/in the absence of chemical substance” value (yeast gene YMR293C) was 1.0, the “The level of expressed mRNA in the presence of chemical substance/” value (yeast gene YMR295C, ratio to control without chemical substance, 2 h culture) was 1.0 and the “The level of expressed mRNA in the presence of chemical substance/The level of expressed mRNA in the absence of chemical substance” value (yeast gene YMR314W) was 1.2. For the same substance, the “The level of expressed mRNA in the presence of chemical substance/” value (yeast gene YMR316W, ratio to control without chemical substance, 2 h culture) was 1.6, the “The level of expressed mRNA in the presence of chemical substance/The level of expressed mRNA in the absence of chemical substance” value (yeast gene YNL006W) was 1.1 and the “The level of expressed mRNA in the presence of chemical substance/The level of expressed mRNA in the absence of chemical substance” value (yeast gene YNL007C) was 0.8. The “The level of expressed mRNA in the presence of chemical substance/” value (yeast gene YNL044W, ratio to control without chemical substance, 2 h culture) was 1.8.
